# Measured values taken from patent publication US11780893B2, “Kv1.3 blockers” (Zealand Pharma A/S, priority 2019, dated 2023).
# Bridge positions count the residues as written; N and C are the ends. Square brackets hold non-standard residues; d marks the D form. Peptide text beside a SMILES is read from it. Nle = CCCC[C@H](N)C(=O)O
# Tests used:
# Assay in all cases: cell-based
# [1] = molecular target: T1, human Kv1.3 voltage-gated K+ channel (Homo sapiens, UniProt P22001); settings: inhibition of thallium flux, CHO-DUKX cells with human Kv1.3; read-out: IC50
# T1 construct: host or cells: CHO-DUKX
# [2] = molecular target: T2, Kv1.1 (Homo sapiens, UniProt Q09470); settings: for IC50: CHO cells, whole-cell patch clamp, read-out: Potency IC50 (nM) Kv1.1; for Selectivity Kv1.1/Kv1.3: ratio IC50[Kv1.1]/IC50[Kv1.3]
# T2 construct: expressed in transfected cells; host or cells: Chinese Hamster Ovary (CHO)
# [3] = molecular target: T3, Kv1.2 (Homo sapiens, UniProt P16389); settings: CHO cells, whole-cell patch clamp; read-out: Potency IC50 (nM) Kv1.2
# T3 construct: expressed in transfected cells; host or cells: Chinese Hamster Ovary (CHO)
# [4] = molecular target: T4, Kv1.3 (Homo sapiens, UniProt P22001); settings: CHO cells, whole-cell patch clamp; read-out: Potency IC50 (nM) Kv1.3
# T4 construct: expressed in transfected cells; host or cells: Chinese Hamster Ovary (CHO)
# [5] = molecular target: T5, Kv1.6 (Homo sapiens, UniProt P17658); settings: for IC50: CHO cells, whole-cell patch clamp, read-out: Potency IC50 (nM) Kv1.6; for Selectivity Kv1.6/Kv1.3: ratio IC50[Kv1.6]/IC50[Kv1.3]
# T5 construct: expressed in transfected cells; host or cells: Chinese Hamster Ovary (CHO)
# T5 sequence (P17658 whole entry): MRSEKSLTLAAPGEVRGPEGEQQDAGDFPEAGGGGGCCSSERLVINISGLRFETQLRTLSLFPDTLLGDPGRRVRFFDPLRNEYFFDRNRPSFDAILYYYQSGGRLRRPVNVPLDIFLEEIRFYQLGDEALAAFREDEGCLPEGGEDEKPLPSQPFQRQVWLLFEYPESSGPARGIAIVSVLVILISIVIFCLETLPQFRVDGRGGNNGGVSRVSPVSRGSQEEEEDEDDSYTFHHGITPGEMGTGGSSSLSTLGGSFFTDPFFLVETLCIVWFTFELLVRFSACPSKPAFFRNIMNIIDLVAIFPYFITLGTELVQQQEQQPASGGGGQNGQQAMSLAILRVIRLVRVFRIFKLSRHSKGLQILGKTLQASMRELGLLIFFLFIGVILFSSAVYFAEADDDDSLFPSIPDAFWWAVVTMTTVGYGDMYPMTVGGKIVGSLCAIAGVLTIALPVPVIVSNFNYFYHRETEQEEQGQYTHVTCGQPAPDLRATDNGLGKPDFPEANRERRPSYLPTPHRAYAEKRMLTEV
# T3 sequence (P16389 whole entry): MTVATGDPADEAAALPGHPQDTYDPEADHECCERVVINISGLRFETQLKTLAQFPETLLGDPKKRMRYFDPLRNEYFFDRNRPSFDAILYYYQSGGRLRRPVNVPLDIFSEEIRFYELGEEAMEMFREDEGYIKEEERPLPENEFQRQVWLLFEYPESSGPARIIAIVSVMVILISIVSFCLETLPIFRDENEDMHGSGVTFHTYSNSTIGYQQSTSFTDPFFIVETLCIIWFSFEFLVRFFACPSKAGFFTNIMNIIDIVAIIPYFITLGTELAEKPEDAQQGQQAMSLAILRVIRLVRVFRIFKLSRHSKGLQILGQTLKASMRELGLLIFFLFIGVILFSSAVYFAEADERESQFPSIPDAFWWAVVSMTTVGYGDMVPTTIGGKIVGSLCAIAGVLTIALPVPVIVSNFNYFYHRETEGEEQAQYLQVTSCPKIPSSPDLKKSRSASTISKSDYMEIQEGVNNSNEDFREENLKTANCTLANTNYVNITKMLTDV
# T1 sequence (P22001 whole entry): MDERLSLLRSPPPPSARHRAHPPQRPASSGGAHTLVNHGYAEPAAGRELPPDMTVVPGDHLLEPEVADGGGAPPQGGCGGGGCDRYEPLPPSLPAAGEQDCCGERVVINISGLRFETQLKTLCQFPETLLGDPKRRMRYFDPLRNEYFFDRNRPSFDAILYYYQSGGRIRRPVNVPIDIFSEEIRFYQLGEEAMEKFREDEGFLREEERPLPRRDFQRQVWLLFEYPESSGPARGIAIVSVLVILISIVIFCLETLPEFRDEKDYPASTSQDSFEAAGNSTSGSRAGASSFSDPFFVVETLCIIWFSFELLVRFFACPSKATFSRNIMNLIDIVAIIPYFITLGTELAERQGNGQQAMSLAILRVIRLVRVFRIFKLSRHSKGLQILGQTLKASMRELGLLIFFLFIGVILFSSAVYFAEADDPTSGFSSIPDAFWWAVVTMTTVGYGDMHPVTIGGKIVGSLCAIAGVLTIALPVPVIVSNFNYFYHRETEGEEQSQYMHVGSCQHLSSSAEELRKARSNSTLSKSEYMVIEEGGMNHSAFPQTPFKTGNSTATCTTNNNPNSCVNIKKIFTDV
# T4 sequence (P22001 whole entry): as above
# T2 sequence (Q09470 whole entry): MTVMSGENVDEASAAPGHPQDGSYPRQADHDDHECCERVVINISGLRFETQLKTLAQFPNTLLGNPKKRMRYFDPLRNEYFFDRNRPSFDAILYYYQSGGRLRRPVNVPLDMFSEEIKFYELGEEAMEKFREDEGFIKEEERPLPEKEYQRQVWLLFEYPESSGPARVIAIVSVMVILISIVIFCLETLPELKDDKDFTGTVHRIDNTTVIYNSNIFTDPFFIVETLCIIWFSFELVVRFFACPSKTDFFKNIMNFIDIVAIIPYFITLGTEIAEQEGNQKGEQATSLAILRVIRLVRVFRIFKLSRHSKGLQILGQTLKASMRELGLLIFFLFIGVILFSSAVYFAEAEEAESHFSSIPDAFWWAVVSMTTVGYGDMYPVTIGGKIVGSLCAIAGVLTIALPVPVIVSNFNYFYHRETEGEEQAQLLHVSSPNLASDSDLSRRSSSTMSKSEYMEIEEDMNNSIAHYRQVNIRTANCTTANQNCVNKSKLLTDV
SMILES,IC50 [1] [nM],IC50 [2] [nM],Selectivity Kv1.1/Kv1.3 [2],IC50 [3] [nM],IC50 [4] [nM],IC50 [5] [nM],Selectivity Kv1.6/Kv1.3 [5]
"CC[C@H](C)[C@@H]1NC(=O)[C@H](C)NC(=O)[C@H](CCCCN)NC(=O)[C@H](CC(C)C)NC(=O)[C@@H]2CSSC[C@@H](C(=O)N[C@@H](Cc3ccc(O)cc3)C(=O)N3CCC[C@H]3C(=O)N[C@@H](CCCNC(=N)N)C(N)=O)NC(=O)[C@H](CCCCN)NC(=O)[C@@H]3CSSC[C@H](NC(=O)[C@H](CCC(=O)O)NC(=O)[C@H](C(C)C)NC(=O)[C@H](CO)NC(=O)[C@H](C)NC(=O)[C@H](CO)NC(=O)[C@@H](NC(=O)[C@H](CCCNC(=N)N)NC(=O)[C@H](CCSC)NC(=O)[C@H](CC(=O)O)NC(=O)[C@H](CCSC)NC(=O)[C@@H](N)CC(N)=O)CSSC[C@H](NC(=O)[C@H](CCCCN)NC(=O)CNC(=O)[C@H](Cc4ccccc4)NC(=O)[C@H]([C@@H](C)CC)NC(=O)[C@H](CO)NC(=O)[C@H](CCC(=O)O)NC1=O)C(=O)N[C@@H](CCSC)C(=O)N[C@@H](CC(N)=O)C(=O)N[C@@H](CCCCN)C(=O)N[C@@H](CCCCN)C(=O)N3)C(=O)N[C@@H](CCCCN)C(=O)N[C@@H](CCC(N)=O)C(=O)N[C@@H](CCCCN)C(=O)N2 [Compound 22] (H-NMDMRCSASVECKQKCLKAIESIFGKCMNKKCKCYPR-NH2; disulfide 6-27, 12-32, 16-34)",0.11,> 3000,>10200,181,0.29,> 3000,>10200
"CC[C@H](C)[C@@H]1NC(=O)[C@H](C)NC(=O)[C@H](CCCCN)NC(=O)[C@H](CC(C)C)NC(=O)[C@@H]2CSSC[C@@H](C(=O)N[C@@H](Cc3ccc(O)cc3)C(=O)N3CCC[C@H]3C(=O)N[C@@H](CCCNC(=N)N)C(N)=O)NC(=O)[C@H](CCCCN)NC(=O)[C@@H]3CSSC[C@H](NC(=O)[C@H](CCC(=O)O)NC(=O)[C@H](C(C)C)NC(=O)[C@H](CO)NC(=O)[C@H](C)NC(=O)[C@H](CCCCN)NC(=O)[C@@H](NC(=O)[C@H](CCCNC(=N)N)NC(=O)[C@H](CCSC)NC(=O)[C@H](CC(=O)O)NC(=O)[C@H](CCSC)NC(=O)[C@@H](N)CC(N)=O)CSSC[C@H](NC(=O)[C@H](CCCCN)NC(=O)CNC(=O)[C@H](Cc4ccccc4)NC(=O)[C@H]([C@@H](C)CC)NC(=O)[C@H](CO)NC(=O)CNC1=O)C(=O)N[C@@H](CCSC)C(=O)N[C@@H](CC(N)=O)C(=O)N[C@@H](CCCCN)C(=O)N[C@@H](CCCCN)C(=O)N3)C(=O)N[C@@H](CCCCN)C(=O)N[C@@H](CCC(N)=O)C(=O)N[C@@H](CCCCN)C(=O)N2 [Compound 25] (H-NMDMRCKASVECKQKCLKAIGSIFGKCMNKKCKCYPR-NH2; disulfide 6-27, 12-32, 16-34)",0.085,> 3000,>34200,67,0.09,363,
"CC[C@H](C)[C@@H]1NC(=O)[C@H](C)NC(=O)[C@H](CCCCN)NC(=O)[C@H](CC(C)C)NC(=O)[C@@H]2CSSC[C@@H](C(=O)N[C@@H](Cc3ccc(O)cc3)C(=O)N3CCC[C@H]3C(=O)N[C@@H](CCCNC(=N)N)C(N)=O)NC(=O)[C@H](CCCCN)NC(=O)[C@@H]3CSSC[C@H](NC(=O)[C@H](CCC(=O)O)NC(=O)[C@H](C(C)C)NC(=O)[C@H](CO)NC(=O)[C@H](C)NC(=O)[C@H](CO)NC(=O)[C@@H](NC(=O)[C@H](CCCNC(=N)N)NC(=O)[C@H](CCSC)NC(=O)[C@H](CC(=O)O)NC(=O)[C@H](CCSC)NC(=O)[C@@H](N)CC(N)=O)CSSC[C@H](NC(=O)[C@H](CCCCN)NC(=O)CNC(=O)[C@H](Cc4ccccc4)NC(=O)[C@H](CCCCN)NC(=O)[C@H](CO)NC(=O)CNC1=O)C(=O)N[C@@H](CCSC)C(=O)N[C@@H](CC(N)=O)C(=O)N[C@@H](CCCCN)C(=O)N[C@@H](CCCCN)C(=O)N3)C(=O)N[C@@H](CCCCN)C(=O)N[C@@H](CCC(N)=O)C(=O)N[C@@H](CCCCN)C(=O)N2 [Compound 34] (H-NMDMRCSASVECKQKCLKAIGSKFGKCMNKKCKCYPR-NH2; disulfide 6-27, 12-32, 16-34)",0.11,> 3000,>7100,100,0.42,207,
"CC[C@H](C)[C@@H]1NC(=O)[C@H](C)NC(=O)[C@H](CCCCN)NC(=O)[C@H](CC(C)C)NC(=O)[C@@H]2CSSC[C@@H](C(=O)N[C@@H](Cc3ccc(O)cc3)C(=O)N3CCC[C@H]3C(=O)N[C@@H](CCCNC(=N)N)C(N)=O)NC(=O)[C@H](CCCCN)NC(=O)[C@@H]3CSSC[C@H](NC(=O)[C@H](CCC(=O)O)NC(=O)[C@H](C(C)C)NC(=O)[C@H](CO)NC(=O)[C@H](C)NC(=O)[C@H](CO)NC(=O)[C@@H](NC(=O)[C@H](CCCNC(=N)N)NC(=O)[C@H](CCSC)NC(=O)[C@H](CC(=O)O)NC(=O)[C@H](CCSC)NC(=O)[C@@H](N)CC(N)=O)CSSC[C@H](NC(=O)[C@H](CCCCN)NC(=O)CNC(=O)[C@H](Cc4ccccc4)NC(=O)[C@H]([C@@H](C)CC)NC(=O)[C@H](CO)NC(=O)CNC1=O)C(=O)N[C@@H](CCSC)C(=O)N[C@@H](CC(N)=O)C(=O)NCC(=O)N[C@@H](CCCCN)C(=O)N3)C(=O)N[C@@H](CCCCN)C(=O)N[C@@H](CCC(N)=O)C(=O)N[C@@H](CCCCN)C(=O)N2 [Compound 36] (H-NMDMRCSASVECKQKCLKAIGSIFGKCMNGKCKCYPR-NH2; disulfide 6-27, 12-32, 16-34)",0.24,> 3000,>9700,439,0.31,> 3000,>9700
"CCCC[C@@H]1NC(=O)[C@@H]2CSSC[C@H](NC(=O)[C@H](CCCNC(=N)N)NC(=O)[C@H](CCCC)NC(=O)[C@H](CC(=O)O)NC(=O)[C@H](CCCC)NC(=O)[C@@H](N)CC(N)=O)C(=O)N[C@@H](CO)C(=O)N[C@@H](C)C(=O)N[C@@H](CO)C(=O)N[C@@H](C(C)C)C(=O)N[C@@H](CCC(=O)O)C(=O)N[C@H]3CSSC[C@H](NC(=O)[C@H](CCCCN)NC(=O)[C@H](CCCCN)NC(=O)[C@H](CC(N)=O)NC1=O)C(=O)N[C@@H](CCCCN)C(=O)N[C@H](C(=O)N[C@@H](Cc1ccc(O)cc1)C(=O)N1CCC[C@H]1C(=O)N[C@@H](CCCNC(=N)N)C(N)=O)CSSC[C@H](NC(=O)[C@H](CCCCN)NC(=O)[C@H](CCC(N)=O)NC(=O)[C@H](CCCCN)NC3=O)C(=O)N[C@@H](CC(C)C)C(=O)N[C@@H](CCCCN)C(=O)N[C@@H](C)C(=O)N[C@@H]([C@@H](C)CC)C(=O)NCC(=O)N[C@@H](CO)C(=O)N[C@@H]([C@@H](C)CC)C(=O)N[C@@H](Cc1ccccc1)C(=O)NCC(=O)N[C@@H](CCCCN)C(=O)N2 [Compound 40] (H-N[Nle]D[Nle]RCSASVECKQKCLKAIGSIFGKC[Nle]NKKCKCYPR-NH2; disulfide 6-27, 12-32, 16-34)",0.1,> 3000,>11600,113,0.26,1830,
"CCCC[C@@H]1NC(=O)[C@@H]2CSSC[C@H](NC(=O)[C@H](CCCNC(=N)N)NC(=O)[C@H](CCCC)NC(=O)[C@H](CC(=O)O)NC(=O)[C@H](CCCC)NC(=O)[C@@H](N)CC(N)=O)C(=O)N[C@@H](CO)C(=O)N[C@@H](C)C(=O)N[C@@H](CO)C(=O)N[C@@H](C(C)C)C(=O)N[C@@H](CCC(=O)O)C(=O)N[C@H]3CSSC[C@H](NC(=O)[C@H](CCCCN)NC(=O)[C@H](CCCCN)NC(=O)[C@H](CC(N)=O)NC1=O)C(=O)N[C@@H](CCCCN)C(=O)N[C@H](C(=O)N[C@@H](Cc1ccc(O)cc1)C(=O)N1CCC[C@H]1C(=O)N[C@@H](CCCNC(=N)N)C(N)=O)CSSC[C@H](NC(=O)[C@H](CCCCN)NC(=O)[C@H](CCCCN)NC(=O)[C@H](CCCCN)NC3=O)C(=O)N[C@@H](CC(C)C)C(=O)N[C@@H](CCCCN)C(=O)N[C@@H](C)C(=O)N[C@@H]([C@@H](C)CC)C(=O)NCC(=O)N[C@@H](CO)C(=O)N[C@@H]([C@@H](C)CC)C(=O)N[C@@H](Cc1ccccc1)C(=O)NCC(=O)N[C@@H](CCCCN)C(=O)N2 [Compound 45] (H-N[Nle]D[Nle]RCSASVECKKKCLKAIGSIFGKC[Nle]NKKCKCYPR-NH2; disulfide 6-27, 12-32, 16-34)",0.16,> 3000,>4000,257,0.75,> 3000,>4000
"CC[C@H](C)[C@@H]1NC(=O)[C@H](C)NC(=O)[C@H](CC(C)C)NC(=O)[C@@H]2CSSC[C@@H](C(=O)N[C@@H](Cc3ccc(O)cc3)C(=O)N3CCC[C@H]3C(=O)N[C@@H](CCCNC(=N)N)C(N)=O)NC(=O)[C@H](CCCCN)NC(=O)[C@@H]3CSSC[C@H](NC(=O)[C@H](CCC(=O)O)NC(=O)[C@H](C(C)C)NC(=O)[C@H](CO)NC(=O)[C@H](C)NC(=O)[C@H](CO)NC(=O)[C@@H](NC(=O)[C@H](CCCNC(=N)N)NC(=O)[C@H](CCSC)NC(=O)[C@H](CC(=O)O)NC(=O)[C@H](CCSC)NC(=O)[C@@H](N)CC(N)=O)CSSC[C@H](NC(=O)[C@H](CCCCN)NC(=O)CNC(=O)[C@H](Cc4ccccc4)NC(=O)[C@H]([C@@H](C)CC)NC(=O)[C@H](CO)NC(=O)CNC1=O)C(=O)N[C@@H](CCSC)C(=O)N[C@@H](CC(N)=O)C(=O)N[C@@H](CCCCN)C(=O)N[C@@H](CCCCN)C(=O)N3)C(=O)N[C@@H](CCCCN)C(=O)N[C@@H](CCC(N)=O)C(=O)N[C@@H](CCCCN)C(=O)N2 [Compound 54] (H-NMDMRCSASVECKQKCLAIGSIFGKCMNKKCKCYPR-NH2; disulfide 6-26, 12-31, 16-33)",0.46,> 3000,>1200,291,2.41,> 3000,>1200
